Results on two compounds are retold here after PMC12788799, “Affinity-guided labeling reveals P2X7 nanoscale membrane redistribution during BV2 microglial activation” (eLife, 2026).

The structures appear in SMILES notation. Substitutions are numbered along the chain they refer to.

Type in all cases: cell-based
Assay [1] has as its target T1, mouse P2X7 (Mus musculus, UniProt Q9Z1M0).
T1 construct: gene P2rx7; endogenous P2X7 in BV2 cells
T1 sequence (Q9Z1M0 1-595): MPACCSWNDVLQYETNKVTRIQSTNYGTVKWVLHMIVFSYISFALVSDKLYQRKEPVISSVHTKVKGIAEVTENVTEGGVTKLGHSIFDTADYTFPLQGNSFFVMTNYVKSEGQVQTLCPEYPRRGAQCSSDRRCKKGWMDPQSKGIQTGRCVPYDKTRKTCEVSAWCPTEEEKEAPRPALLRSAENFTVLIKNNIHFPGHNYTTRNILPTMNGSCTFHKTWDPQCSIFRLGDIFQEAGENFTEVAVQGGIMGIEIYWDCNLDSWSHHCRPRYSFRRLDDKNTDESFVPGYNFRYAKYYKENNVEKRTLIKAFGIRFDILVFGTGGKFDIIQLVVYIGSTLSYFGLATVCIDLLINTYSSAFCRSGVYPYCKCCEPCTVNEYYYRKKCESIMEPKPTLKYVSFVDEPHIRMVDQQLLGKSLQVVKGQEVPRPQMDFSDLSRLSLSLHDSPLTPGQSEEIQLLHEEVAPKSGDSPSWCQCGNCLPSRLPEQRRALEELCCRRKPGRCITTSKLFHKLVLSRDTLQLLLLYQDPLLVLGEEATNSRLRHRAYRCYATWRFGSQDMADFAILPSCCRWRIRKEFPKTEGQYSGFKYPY
Description: Competition:[…] blocks X7-uP labeling of endogenous P2X7 (pull-down western blot, confocal). (A western blot detects proteins with antibodies after separation by electrophoresis.)

For assay [2], the target named is T2, rat P2X7 (rP2X7) (Rattus norvegicus, UniProt Q64663).
T2 sequence (Q64663 1-595): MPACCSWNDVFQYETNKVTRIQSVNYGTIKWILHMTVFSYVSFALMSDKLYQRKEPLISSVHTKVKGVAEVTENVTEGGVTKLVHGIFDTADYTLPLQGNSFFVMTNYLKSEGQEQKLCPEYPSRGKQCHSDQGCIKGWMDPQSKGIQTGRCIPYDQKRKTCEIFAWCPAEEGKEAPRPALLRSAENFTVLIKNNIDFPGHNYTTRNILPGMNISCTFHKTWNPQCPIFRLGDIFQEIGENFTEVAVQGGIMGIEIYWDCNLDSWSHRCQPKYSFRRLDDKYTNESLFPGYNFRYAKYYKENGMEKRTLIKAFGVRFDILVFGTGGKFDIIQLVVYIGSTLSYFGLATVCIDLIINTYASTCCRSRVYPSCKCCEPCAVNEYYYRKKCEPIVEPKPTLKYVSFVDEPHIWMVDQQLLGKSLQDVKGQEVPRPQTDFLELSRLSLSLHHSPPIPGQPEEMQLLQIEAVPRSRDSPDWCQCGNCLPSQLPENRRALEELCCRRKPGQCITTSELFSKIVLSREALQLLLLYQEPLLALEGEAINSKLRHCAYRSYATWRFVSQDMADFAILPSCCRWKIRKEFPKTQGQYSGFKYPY
The experiment in a line: Whole-cell patch-clamp, inhibition of BzATP-evoked currents at […] in HEK293T cells; also blocks X7-uP labeling. Details: gene P2rx7.

In assay [3] the target is T1, mouse P2X7. The experiment in a line: Covalent biotinylation of endogenous receptor with […] X7-uP, pull-down western blot and confocal imaging, blocked by AZ10606120 or A740003.
The target of assay [4] is T2, rat P2X7 (rP2X7). The experiment in a line: Kinetics of covalent biotinylation in HEK293T cells (pull-down western blot); whole-cell patch-clamp inhibition of BzATP currents. Details: gene P2rx7; P2X7c-myc.
Assay [5] concerns the target T3, rat P2X7 (rP2X7) (Rattus norvegicus, UniProt Q64663, K82A/K117A).
T3 construct: gene P2rx7; P2X7-mScarlet background
T3 sequence (Q64663 1-595 K82A/K117A): T2 sequence (Q64663 1-595) with K82A, K117A
Description: Whole-cell patch-clamp, reversible inhibition of BzATP-evoked currents by […] X7-uP in HEK293T cells. Background: In patch-clamp work, channel activity is measured electrically.

A word on the inhibition: it is the percentage by which the read-out fell short of the control. Higher therefore signals a response far below the control. On to `O=C(CC12CC3CC(CC(C3)C1)C2)Nc1cccc2nc(NCCNCCO)ccc12` [AZ10606120], for which the “Competition: 10 μM blocks X7-uP labeling of endogenous P2X7 (pull-down western b)” value on mouse P2X7 [1] was “This band disappeared upon co-incubation with AZ10606120 or A740003”. The compound further yielded an inhibition at 1 µM against rat P2X7 (rP2X7) [2] of 99.7%.

In general, Kd refers to the equilibrium constant for the complex coming apart. For `N#CCN(C(=O)CCOCCOCCOCCOCCNC(=O)CCCC[C@@H]1SC[C@@H]2NC(=O)N[C@@H]21)S(=O)(=O)c1ccc(C(=O)NCCNc2ccc3c(NC(=O)CC45CC6CC(CC(C6)C4)C5)cccc3n2)cc1` [X7-uP, N-(2-((5-(2-(adamantan-1-yl)acetamido)quinolin-2-yl)amino)ethyl)–4-(N-(cyanomethyl)-N-(17-oxo-21-((3aR,4R,6aS)–2-oxo-hexahydro-1H-thieno[3,4-d]imidazol-4-yl)–4,7,10,13-tetraoxa-16-azahenico-sanoyl)sulfamoyl)benzamide], on mouse P2X7 [3], the “% labeled” value is 80 % labeled. The compound also registered a Kd at rat P2X7 (rP2X7) [4] of 7.3 µM. Also, the “Whole-cell patch-clamp, reversible inhibition of BzATP-evoked currents by 0.5 μM” value at rat P2X7 (rP2X7) [5] is listed as “the double K82A/K117A mutant did not affect the ability of X7-uP to inhibit BzATP-evoked currents”.
